Test results published in PubChem BioAssay (NCI).
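Exposure lasted 48 hours, with cells grown in 96-well plates and compounds tested at five concentrations. The concentration for 50% growth inhibition is given as GI50. TGI denotes the concentration required for complete inhibition of growth.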 Peptide text beside a SMILES is read from it. * marks the point of attachment. Boc = CC(C)(C)OC(=O)*; OBn = c1ccc(CO*)cc1

What was measured:
Assay in all cases: inhibition of tumour cell growth, NCI panel, 48 h
SF-295 CNS = tested on: SF-295 CNS
UO-31 renal = tested on: UO-31 renal
NCI-H23 lung = tested on: NCI-H23 lung
OVCAR-3 ovarian = tested on: OVCAR-3 ovarian
SNB-75 CNS = tested on: SNB-75 CNS
HT29 colon = tested on: HT29 colon
UACC-62 melanoma = tested on: UACC-62 melanoma
HCT-15 colon = tested on: HCT-15 colon
HCC-2998 colon = tested on: HCC-2998 colon
T-47D breast = tested on: T-47D breast
PC-3 prostate = tested on: PC-3 prostate

| Structure (SMILES) | TGI (SF-295 CNS) | TGI (UO-31 renal) | TGI (NCI-H23 lung) | TGI (OVCAR-3 ovarian) | TGI (SNB-75 CNS) | TGI (HT29 colon) | TGI (UACC-62 melanoma) | TGI (HCT-15 colon) | TGI (HCC-2998 colon) | TGI (T-47D breast) | TGI (PC-3 prostate) | GI50 (SF-295 CNS) | GI50 (UO-31 renal) | GI50 (T-47D breast) | GI50 (NCI-H23 lung) | GI50 (SNB-75 CNS) |
| --- | --- | --- | --- | --- | --- | --- | --- | --- | --- | --- | --- | --- | --- | --- | --- | --- |
| O=C(c1cccs1)N(C(=S)N1CCN(c2ccccn2)CC1)C1CCCCC1 | > 100 µM | > 100 µM | > 100 µM | > 100 µM | > 100 µM | > 100 µM | > 100 µM | > 100 µM | – | – | – | – | – | – | – | – |
| CC1=NN(C(=O)c2ccccc2O)C(=O)/C1=C/c1ccccc1O | > 100 µM | 1.56 µM | 20.9 µM | – | > 67.7 µM | > 100 µM | 7.2 µM | 21.2 µM | 55.6 µM | 15.6 µM | > 100 µM | – | – | – | – | – |
| COC(=O)C1=C(\c2ccccc2)c2ccccc2C(=O)N(C2CCCCC2)/C=C\1 | > 100 µM | > 100 µM | > 100 µM | 79.4 µM | > 100 µM | > 100 µM | – | > 100 µM | 62 µM | – | > 100 µM | – | – | – | – | – |
| COc1ccc2cc(/C=N\NC(=O)Nc3cccc4ccccc34)ccc2c1 | – | > 100 µM | > 100 µM | – | 47.2 µM | > 100 µM | – | > 100 µM | > 100 µM | – | > 100 µM | – | – | – | – | – |
| C#C[C@]1(O)CCC2C3CCc4cc(Oc5nc(F)nc(-c6c7cc8ccccc8cc7c7n6CCS7)n5)ccc4C3CCC21C (stereo not given in full) | > 100 µM | > 100 µM | > 100 µM | > 100 µM | > 100 µM | 74.3 µM | 55.3 µM | – | > 100 µM | – | – | – | – | – | – | – |
| NC(=O)C(c1ccccc1)N1OC2C(=O)N(c3cccc4ccccc34)C(=O)C2C1c1c2ccccc2c(Cl)c2ccccc12 (stereo not given) | 23.9 µM | 20.3 µM | 26 µM | 17.5 µM | 20.4 µM | 14.7 µM | 13.8 µM | 16.4 µM | – | 31.7 µM | 18.6 µM | – | – | – | – | – |
| Cn1c(Nc2ccccc2)c(C=Nc2ccccc2)c(=O)n(C)c1=O | > 100 µM | > 100 µM | > 100 µM | > 100 µM | – | > 100 µM | > 100 µM | – | – | – | > 100 µM | – | – | – | – | – |
| [N-]=[NH+]CC(=O)OC(COCc1ccccc1)COCc1ccccc1 | > 100 µM | 63 µM | > 100 µM | > 100 µM | – | > 100 µM | > 100 µM | > 100 µM | > 100 µM | – | > 100 µM | – | – | – | – | – |
| COC(=O)C1[C@@H](C(=O)OC)C12C=Cc1ccccc1C=C2 (stereo not given in full) | > 100 µM | > 100 µM | > 100 µM | > 100 µM | – | – | > 100 µM | > 100 µM | > 100 µM | – | – | – | – | – | – | – |
| CC(NC(=O)CNC(=O)OC(C)(C)C)C(=O)NC(Cc1ccccc1)C(=O)OCc1ccccc1 (stereo not drawn) (Boc-Gly-Ala-Phe-OBn; configuration not given here) | > 100 µM | > 100 µM | > 100 µM | – | > 100 µM | > 100 µM | > 100 µM | > 100 µM | – | > 100 µM | > 100 µM | – | – | – | – | – |
| COc1cc(C2C3=C(COC3=O)Oc3cc4c(cc32)OCO4)ccc1OC(C)=O (stereo not given) | – | > 100 µM | > 100 µM | – | 0.585 µM | – | > 100 µM | > 100 µM | 5.96 µM | > 100 µM | > 100 µM | – | – | – | – | – |
| O=C(CCc1ccc(O)cc1)NCCc1cccc(OCc2ccccc2)c1 | > 100 µM | 53.9 µM | 71.6 µM | 35.1 µM | – | 38.4 µM | 34 µM | > 100 µM | 41.3 µM | 67.7 µM | 88.4 µM | – | – | – | – | – |
| COc1cc(Nc2cnc3cc(F)c(F)cc3n2)cc(OC)c1 | > 100 µM | > 100 µM | 91 µM | > 100 µM | 53.4 µM | > 100 µM | > 100 µM | > 100 µM | – | > 100 µM | > 100 µM | – | – | – | – | – |
| Cc1ccc(SCC(CF)OCn2cc(F)c(=O)[nH]c2=O)cc1 (stereo not given) | > 100 µM | > 100 µM | > 100 µM | > 100 µM | – | > 100 µM | – | > 100 µM | > 100 µM | > 100 µM | > 100 µM | – | – | – | – | – |
| CCSC1=N/C(=C\c2ccco2)C(Cl)=N1 | > 100 µM | > 100 µM | > 100 µM | > 100 µM | > 100 µM | > 100 µM | > 100 µM | > 100 µM | – | > 100 µM | > 100 µM | – | – | – | – | – |
| CCCCCCCCCCCCC(O)C1CCC(C(O)CCCCCCC(O)CCCCCCCC2=CC(C)OC2=O)O1 (stereo not given) | > 100 µM | 35 µM | > 100 µM | 45.7 µM | > 100 µM | – | – | > 100 µM | 82.5 µM | > 100 µM | 90.7 µM | 17.5 µM | 17 µM | 14.8 µM | 13.3 µM | 74.5 µM |
| O=C1c2c(ccc3c2CCC3)CC12Cc1cc3c(cc1C2)CCC3 | > 100 µM | > 100 µM | > 100 µM | > 100 µM | > 100 µM | > 100 µM | – | > 100 µM | > 100 µM | > 100 µM | > 100 µM | – | – | – | – | – |
